Experimental findings from patent EP0996436B1, “PHARMACEUTICAL FORMULATIONS CONTAINING POORLY SOLUBLE DRUG SUBSTANCES” (Sanofi-Aventis, priority 1997, dated 1998) are described below.

Data set [1] can be described thus: Dissolution rate of SR48692 capsules in deionized water pH 5.5 (USP Apparatus 2). Format: physicochemical. The settings on record: at the end of the experiment of 60 minutes, water pH 5.5 (unbuffered), 37°C. As for the experimental part:
The dissolution rate of 25 mg SR48692 solid dispersion in hard gelatin capsules were measured in deionized water (900 ml, pH=5.5, unbuffered) at 37°C. A USP dissolution system (Apparatus 2) with a paddle speed of 100 RPM was used. Dissolution rate was monitored by UV (Hewlett Packard 8452A) at 234 nm.
A screening dissolution test was run in USP Apparatus 2 with water at pH 5.5 (unbuffered) at 37°C comparing the solid dispersion of this invention (Example 2) with unformulated (jet-milled) SR48692. The solid dispersions provide enormous dissolution enhancement with respect to pure drug and low impurity levels (0.4%).

A short description of data set [2]: Solubility of SR48692 in polyethylene glycol/NaOH/water. Format: physicochemical. The settings on record: PEG/NaOH/H2O; mole equivalents of NaOH per mole of drug 1.0 and less.

The substance SR48692 displayed a dissolved in data set [1] below 10%. The solubility result in data set [2] is “Inadequate”.
